# Measured values taken from paper PMC10102027, “Helquat dyes targeting G-quadruplexes as a new class of anti-HIV-1 inhibitors” (Scientific Reports, 2023).
# What was measured:
# [1] = tested on: G-quadruplexes in the HIV-1 LTR (G4 LTR FRET oligonucleotide); experiment: FRET melting assay; assay type: binding; conditions: 2 μM compound, 0.2 μM oligonucleotide
# [2] = tested on: HIV-1 LTR G-quadruplex template (G4 LTR Stop); experiment: Taq polymerase stop assay; assay type: biochemical; conditions: for Fold change, all regions (A, B and C) together: normalized against control
# Protocol: To address specifically the positions in the HIV-1 promoter region that are affected by the binding of G4-stabilizing agents, we performed a Taq polymerase stop assay. The wild-type LTR oligonucleotide was extended at the […] to include a primer-annealing region and used as a template for a single-cycle Taq polymerase reaction. The elongation of the radioactively labelled primer was performed at 45 °C in the presence or absence of the tested compounds and controls.
# A Taq polymerase stop assay was carried out as described in a previous study. Briefly, the primer (G4 LTR primer, Supplementary Table S1) was 5′-end labelled with [γ-^32P]ATP using T4 polynucleotide kinase at 37 °C for 30 min. The T4 polynucleotide kinase was then inactivated by incubation at 65 °C for 5 min. The radioactively labelled primer was column-purified and stored at − 20 °C for further use. The labelled primer (1.7 pmol) was annealed to the template (2.1 pmol) in the LiCaco buffer and extended with the Go Taq DNA polymerase (2U/reaction, Promega) at 45 °C for 45 min. Samples were incubated with G-quadruplex-ligands at 45 °C for 45 min before DNA polymerase addition. The reactions were stopped by a denaturing solution (80% formamide, 10% glycerol, 0.025% xylen cyanol, 0.025% bromphenol blue and 10 mM EDTA pH 8); extension products were separated on 15% denaturing gel and visualized by phosphorimaging. The pixel intensity of bands was calculated using 1D gel analysis in ImageQuant TL software version 8.1 (GE HealthCare) after automatic background subtraction by Rolling Ball method.
# [3] = 2.5 µM, pixel intensity normalized against negative control
smiles,measurement,setting,value
"NCCOc1cc(C(=O)Nc2cc(OCCN)c3ccccc3n2)nc(C(=O)Nc2cc(OCCN)c3ccccc3n2)c1 [PDS, pyridostatin, reference compound]",Tm,"[1]; 100 mM KCl, mean and standard error, three experiments",93 ± 13 °C
same,ΔTm,[1]; average Tm minus average Tm of PBS,42 °C
same,"Fold change, all regions (A, B and C) together",[2]; 1 μM,2.0
same,"Fold change, all regions (A, B and C) together",[2]; 2.5 μM,2.4
same,Fold change: A (G-patch 6′),[2]; [3],2.6
same,Fold change: B (G-patch 6),[2]; [3],2.7
same,Fold change: C (G-patch 5),[2]; [3],1.6
